In this test the target is T1, Type-1 angiotensin II receptor (Homo sapiens) (UniProt P30556).
T1 sequence (whole entry): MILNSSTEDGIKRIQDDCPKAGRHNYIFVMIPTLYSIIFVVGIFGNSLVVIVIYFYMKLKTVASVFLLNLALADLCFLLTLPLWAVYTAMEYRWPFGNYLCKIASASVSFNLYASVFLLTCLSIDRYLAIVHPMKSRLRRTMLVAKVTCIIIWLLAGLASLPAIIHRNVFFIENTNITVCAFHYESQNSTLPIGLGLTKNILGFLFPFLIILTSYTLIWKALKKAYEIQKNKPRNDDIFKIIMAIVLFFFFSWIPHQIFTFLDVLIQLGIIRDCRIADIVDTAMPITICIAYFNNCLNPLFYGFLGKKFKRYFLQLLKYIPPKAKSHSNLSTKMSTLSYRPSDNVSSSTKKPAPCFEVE
As to the kind of experiment: Antagonist activity at AT1 angiotensin receptor expressed in SKNSH cells at 100 nM by ELISA relative to control. The class given is functional, cell-based. The arrangement: scale not given: the % may be the effect or the level left. On the technique in general: ELISA stands for enzyme-linked immunosorbent assay.

`CC(C)C[C@H](NC(=O)[C@H](Cc1ccccc1)NC(=O)[C@H](CCCCN)NC(=O)[C@H](Cc1ccccc1)NC(=O)[C@H](CC(N)=O)NC(=O)[C@@H](NC(=O)[C@@H]1CCCN1)C(C)C)C(=O)N[C@@H](CO)C(=O)N[C@@H](Cc1cnc[nH]1)C(=O)O` [HEMOPRESSIN] registered an Activity of 110%.

The record behind these values is ChEMBL document CHEMBL1156534, “Hemopressin is an inverse agonist of CB1 cannabinoid receptors” (Proc Natl Acad Sci U S A, 2007).
